Measurements published in patent US20250360134A1, “6-6 OR 5-6 FUSED BICYCLIC COMPOUNDS COMPRISING A PYRI(MI)DINE RING USEFUL IN THE|TREATMENT OF INFECTIOUS DISEASES” (INSTITUT NATIONAL DE LA SANTE ET DE LA RECHERCHE MEDICALE …, priority 2020, published 2025).
Counter-ions that a name gives are not always drawn. Like-named read-outs stand apart in the source and are kept apart here.

Experiments:
[1] = tested on: human duplex sequence FdxT; experiment: FRET-melting, FdxT; settings: duplex control, K+ condition, 2 μM compound, 0.2 μM oligonucleotide
[2] = tested on: HepG2 cells; experiment: Cytotoxicity evaluation, MTT; format: cell-based, human
Experimental: (§1) The aim of this assay was to evaluate the impact of metabolic activation of the tested compounds on cell viability.
(§2) A cytotoxicity evaluation was performed using the method reported in Emami S A et al., Iran J Basic Med Sci 2012; 15:807-11 to determine the cytotoxic concentrations 50% (CC50) and using doxorubicin as a cytotoxic reference compound. These assays were performed in human HepG2 cells. HepG2 cells were purchased from ATCC (ref HB-8065). These cells are a commonly used human hepatocarcinoma-derived cell line that has characteristics similar to those of primary hepatocytes. These cells express many hepatocyte-specific metabolic enzymes, thus enabling the cytotoxicity of tested product metabolites to be evaluated. Briefly, cells in 100 μl of complete RPMI medium [RPMI supplemented with 10% FCS, 1% 1-glutamine (200 mM), penicillin (100 U/ml), and streptomycin (100 μg/ml)] were inoculated into each well of 96-well plates and incubated at 37° C. in a humidified chamber in 6% CO2. After 24 hours, 100 μl of medium with test compound at various concentrations dissolved in DMSO (final concentration less than 0.5% v/v) was added, and the plates were incubated for 72 hours at 37° C. Duplicate assays were performed for each sample. Each well was microscopically examined for precipitate formation before the medium was aspirated from the wells. After aspiration, 100 μl of MTT solution (0.5 mg/ml in medium without FCS) were then added to each well. Cells were incubated for 2 hours at 37° C. MTT solution was removed, and DMSO (100 μl) was added to dissolve the resulting blue formazan crystals. Plates were shaken vigorously (300 rpm) for 5 min. The absorbance was measured at 570 nm with 630 nm as reference wavelength in a BIO-TEK ELx808 Absorbance Microplate Reader. DMSO was used as blank and doxorubicin (Sigma-Aldrich) as positive control. Cell viability was calculated as percentage of control (cells incubated without compound).

[3] = tested on: Plasmodium falciparum W2; experiment: In vitro antiplasmodial activity, SYBR Green I, strain W2
Experimental: (§3) The in vitro antiplasmodial activities were tested over concentrations ranging from 39 to 40 μm against culture-adapted Plasmodium falciparum: reference strains 3D7 and W2. […] The parasites were cultivated in RPMI medium (Sigma-Aldrich, Lyon, France) supplemented with 0.5% Albumax I (Life Technologies Corporation, Paisley, UK), hypoxanthine (Sigma-Aldrich), and gentamicin (Sigma-Aldrich) with human erythrocytes and were incubated at 37° C. in a candle jar, as described in Desjardins R E et al., Antimicrob Agents Chemother, 1979; 16:710-18.
(§4) The P. falciparum drug susceptibility test was carried out in 96-well flat bottom sterile plates in a final volume of 250 μL. After a 48-hour incubation with the drugs, quantities of DNA in treated and control cultures of parasites in human erythrocytes were quantified using the SYBR Green I (Sigma-Aldrich) fluorescence-based method as described in Bennett T N et al, Antimicrob Agents Chemother, 2004; 48:1807-10. Briefly, after incubation, plates were frozen at −20° C. until use. Plates were then thawed for 2 hours at room temperature, and 100 μL of each homogenized culture was transferred to a well of a 96-well flat bottom sterile black plate (Nunc, Inc., Rochester, NY) that contained 100 μL of the SYBR Green I lysis buffer (2×SYBR Green, 20 mM Tris base pH 7.5, 5 mM EDTA, 0.008% w/v saponin, 0.08% w/v Triton X-100). […] Plates were incubated for 1 hour at room temperature and then read on a fluorescence plate reader (Tecan, Grödig, Austria) using excitation and emission wavelengths of 485 and 535 nm, respectively. Concentrations inhibiting 50% of the parasite's growth (half maximal inhibitory concentration or IC50 values) were then calculated from the obtained experimental results by non-linear regression analysis of data from dose-response curves, using TableCurve 2D version 5.0 software (Systat Software, San Jose, CA). IC50 values are reported as means calculated from three independent experiments, as described in H. Kaddouri et al., Antimicrob.

[4] = tested on: Plasmodium falciparum 3D7; experiment: In vitro antiplasmodial activity, SYBR Green I, strain 3D7
Experimental: as §3, §4

[5] = tested on: T. brucei brucei AnTat 1.9; experiment: In vitro antitrypanosomal activity, Alamar Blue assay; format: cell-based, Trypanosoma brucei brucei; settings: read-out: IC50 T. brucei brucei
Experimental: The effects of the tested compounds on the growth of T. brucei brucei were assessed using an Alamar Blue® assay described in B. Raz et al., Acta Trop. 1997, 68, 139. T. brucei brucei AnTat 1.9 (IMTA, Antwerpen, Belgium) was cultured in MEM with Earle's salts, supplemented according to the protocol disclosed in T. Baltz et al., EMBO J. 1985, 4, 1273, with the following modifications: 0.5 mM mercaptoethanol (Sigma-Aldrich), 1.5 mM 1-cysteine (Sigma-Aldrich), 0.05 mM bathocuproine sulfate (Sigma-Aldrich), and 20% heat-inactivated horse serum (Gibco, France) at 37° C. and 5% CO2. Samples were incubated at an average density of 2000 parasites/well in sterile 96-well plates (Fisher, France) with various concentrations of compounds dissolved in 0.9% NaCl. All doses were tested in duplicate. Appropriate controls treated with solvents 0.9% NaCl or DMSO or with suramin, pentamidine, eflornithine, and fexinidazole (reference drugs purchased from Sigma-Aldrich and Fluorochem, UK) were added to each set of experiments. After a 69-hour incubation at 37° C., 10 μl of the viability marker Alamar Blue (Fisher) was added to each well, and the plates were incubated for 5 hour. The plates were read in a PerkinElmer ENSPIRE (Germany) microplate reader using an excitation wavelength of 530 nm and an emission wavelength of 590 nm. The IC50 was defined as the concentration of drug necessary to inhibit by 50% the activity of T. brucei brucei compared to the control. IC50 values were calculated using a non-linear regression analysis of dose-response curves performed using GraphPad Prism software (USA). IC50 values were calculated from three independent experiments.

[6] = Cytotoxicity evaluation, MTT; format: cell-based, human; settings: HepG2 cells (hepatocarcinoma-derived, ATCC HB-8065); human HepG2 cells, 72 hours, MTT
Experimental: as §1, §2

[7] = tested on: human telomeric sequence F21T; experiment: FRET-melting, F21T; settings: K+ condition, 2 μM compound, 0.2 μM oligonucleotide
[8] = tested on: Plasmodium telomeric sequence FPf8T; experiment: FRET-melting, FPf8T; settings: K+ condition, 2 μM compound, 0.2 μM oligonucleotide
[9] = tested on: SARS-CoV-2; experiment: microbe, parasite or virus in culture; format: cell-based; settings: Severe acute respiratory syndrome coronavirus 2; A549 cells expressing human ACE2, 72 hours after infection, RT-PCR of the N-gene; read-out: IC50 RTqPCR SARS-CoV-2
[10] = tested on: Trypanosoma 9 and 11 chromosomic sequence FTrypBT; experiment: FRET-melting, FTrypBT; settings: K+ condition, 2 μM compound, 0.2 μM oligonucleotide
[11] = tested on: Plasmodium telomeric sequence FPf1T; experiment: FRET-melting, FPf1T; settings: K+ condition, 2 μM compound, 0.2 μM oligonucleotide
[12] = Plasmodium falciparum, W2, 48 h, read-out: IC50 Plasmodium falciparum W2, chloroquine-resistant strain W2, 48-hour incubation
[13] = Plasmodium falciparum, 3D7, 48 h, read-out: IC50 Plasmodium falciparum 3D7, chloroquine-sensitive strain 3D7, 48-hour incubation
[14] = Trypanosoma brucei, 69-hour incubation, Alamar Blue

2-(3-Dimethylaminopropylamino)-4-{4-[(4-dimethylaminopropyl)aminomethyl]phenyl}-7-phenyl-7H-pyrrolo[2,3-d]pyrimidine oxalate [Compound 14B]
FRET-melting values in K+ conditions at 2 μM ΔTm FdxT [1]: −0.7 °C
IC50 [2]: 13500 nM
IC50 ([3]; read-out: IC50 Plasmodium falciparum W2, chloroquine-resistant strain W2, 48-hour incubation): 290 ± 100 nM
IC50 ([4]; read-out: IC50 Plasmodium falciparum 3D7, chloroquine-sensitive strain 3D7, 48-hour incubation): 1480 ± 290 nM
IC50 ([5]; 69-hour incubation, Alamar Blue): 890 ± 90 nM

CN(C)CCCNCc1ccc(-c2nc(-c3ccc(CNCCCN(C)C)cc3)c3ccn(-c4ccccc4)c3n2)cc1 [Compound 1B, 2,4-bis{4-[(3-dimethylaminopropyl)aminomethyl]phenyl}-7-phenyl-7H-pyrrolo[2,3-d]pyrimidine oxalate]
FRET-melting values in K+ conditions at 2 μM ΔTm FdxT [1]: 1.2 °C
IC50 at 72 h [6]: 1640 nM
IC50 [3, 12]: 2710 ± 140 nM
FRET-melting values in K+ conditions at 2 μM ΔTm F21T [7]: 22.8 °C
IC50 [4, 13]: 2220 ± 120 nM
FRET-melting values in K+ conditions at 2 μM ΔTm FPf8T [8]: 23.5 °C
IC50 ([5]; Trypanosoma brucei, 69 h): 550 ± 70 nM
IC50 [9]: 330 nM
FRET-melting values in K+ conditions at 2 μM ΔTm FtryBT [10]: 20.5 °C
FRET-melting values in K+ conditions at 2 μM ΔTm FPf1T [11]: 23.6 °C

CN(C)CCCNCc1ccc(-c2nc(-c3ccc(CNCCCN(C)C)cc3)c3ccn(-c4ccc(CNCCCN(C)C)cc4)c3n2)cc1 [Compound 13B, 2,4,7-Tri{4-[(3-dimethylaminopropyl)aminomethyl]phenyl}-7H-pyrrolo[2,3-d]pyrimidine oxalate]
FRET-melting values in K+ conditions at 2 μM ΔTm FdxT [1]: 5.4 °C
IC50 at 72 h [6]: 26700 nM
IC50 [3, 12]: 10600 ± 690 nM
FRET-melting values in K+ conditions at 2 μM ΔTm F21T [7]: 29.1 °C
IC50 [4, 13]: 2440 ± 1270 nM
FRET-melting values in K+ conditions at 2 μM ΔTm FPf8T [8]: 34.6 °C
IC50 ([5]; Trypanosoma brucei, 69 h): 860 ± 70 nM
IC50 [9]: 170 nM
FRET-melting values in K+ conditions at 2 μM ΔTm FtryBT [10]: 30.7 °C
FRET-melting values in K+ conditions at 2 μM ΔTm FPf1T [11]: 33.1 °C

CN1CCN(CCCNCc2ccc(-c3nc(-c4ccc(CNCCCN5CCN(C)CC5)cc4)c4ccsc4n3)cc2)CC1 [Compound 27B, 2,4-Bis{4-[(3-(4-methylpiperazin-1-yl)propyl)aminomethyl]phenyl}thieno[2,3-d]pyrimidine oxalate]
FRET-melting values in K+ conditions at 2 μM ΔTm FdxT [1]: −0.10 °C
IC50 at 72 h [6]: 11200 nM
IC50 [3, 12]: 4180 ± 30 nM
FRET-melting values in K+ conditions at 2 μM ΔTm F21T [7]: 9.72 °C
IC50 [4, 13]: 1950 ± 680 nM
FRET-melting values in K+ conditions at 2 μM ΔTm FPf8T [8]: 9.0 °C
IC50 ([5]; Trypanosoma brucei, 69 h): 890 ± 100 nM
FRET-melting values in K+ conditions at 2 μM ΔTm FtryBT [10]: 7.9 °C
FRET-melting values in K+ conditions at 2 μM ΔTm FPf1T [11]: 9.6 °C

CN(C)CCCNCc1ccc(-c2nc(-c3ccc(CNCCCN(C)C)cc3)c3sccc3n2)cc1 [Compound 29B, 2,4-Bis{4-[(4-dimethylaminopropyl)aminomethyl]phenyl}thieno[3,2-d]pyrimidine oxalate]
FRET-melting values in K+ conditions at 2 μM ΔTm FdxT [1]: 1.8 °C
IC50 at 72 h [6]: 3190 nM
IC50 [3, 12]: 2170 ± 410 nM
FRET-melting values in K+ conditions at 2 μM ΔTm F21T [7]: 19.0 °C
IC50 [4, 13]: 1370 ± 240 nM
FRET-melting values in K+ conditions at 2 μM ΔTm FPf8T [8]: 20.9 °C
IC50 [5, 14]: 140 ± 20 nM
FRET-melting values in K+ conditions at 2 μM ΔTm FtryBT [10]: 17.1 °C
FRET-melting values in K+ conditions at 2 μM ΔTm FPf1T [11]: 20.1 °C

CN1CCN(CCCNCc2ccc(-c3nc(-c4ccc(CNCCCN5CCN(C)CC5)cc4)c4sccc4n3)cc2)CC1 [Compound 30B, 2,4-Bis{4-[(3-(4-methylpiperazin-1-yl)propyl)aminomethyl]phenyl}thieno[3,2-d]pyrimidine oxalate]
FRET-melting values in K+ conditions at 2 μM ΔTm FdxT [1]: 0.5 °C
IC50 at 72 h [6]: 18900 nM
IC50 [3, 12]: 30 nM
FRET-melting values in K+ conditions at 2 μM ΔTm F21T [7]: 14.5 °C
IC50 [4, 13]: 10800 ± 2950 nM
FRET-melting values in K+ conditions at 2 μM ΔTm FPf8T [8]: 15.2 °C
IC50 ([5]; Trypanosoma brucei, 69 h): 750 ± 100 nM
FRET-melting values in K+ conditions at 2 μM ΔTm FtryBT [10]: 12.8 °C
FRET-melting values in K+ conditions at 2 μM ΔTm FPf1T [11]: 14.9 °C

CN(C)CCCNCc1ccc(-c2nc(NCCCN(C)C)nc3ccsc23)cc1 [Compound 31B, 2-(3-Dimethylaminopropylamino)-4-{4-[(4-dimethylaminopropyl)aminomethyl]phenyl}thieno[3,2-d]pyrimidine oxalate]
FRET-melting values in K+ conditions at 2 μM ΔTm FdxT [1]: −0.7 °C
IC50 at 72 h [6]: > 60000 nM
IC50 [3, 12]: 5690 ± 1210 nM
FRET-melting values in K+ conditions at 2 μM ΔTm F21T [7]: 2.0 °C
IC50 [4, 13]: 40 ± 10 nM
FRET-melting values in K+ conditions at 2 μM ΔTm FPf8T [8]: 2.9 °C
IC50 [5, 14]: 2580 ± 210 nM
FRET-melting values in K+ conditions at 2 μM ΔTm FtryBT [10]: 1.8 °C
FRET-melting values in K+ conditions at 2 μM ΔTm FPf1T [11]: 1.8 °C

CCN(CC)CCCCNCc1ccc(-c2nc(-c3ccc(CNCCCCN(CC)CC)cc3)c3ccn(-c4ccccc4)c3n2)cc1 [Compound 33B, oxalate]
IC50 [3, 12]: 700 ± 150 nM
IC50 [4, 13]: 2470 ± 190 nM
IC50 [9]: 550 nM

CC(C)N(CCCCCNCc1ccc(-c2nc(-c3ccc(CNCCCCCN(C(C)C)C(C)C)cc3)c3ccn(-c4ccccc4)c3n2)cc1)C(C)C [Compound 34B, oxalate]
IC50 [3, 12]: 770 ± 70 nM
IC50 [4, 13]: 930 ± 150 nM
IC50 [9]: 170 nM

CN(C)CCCCCNCc1ccc(-c2nc(-c3ccccc3)c3ccn(-c4ccc(CNCCCCCN(C)C)cc4)c3n2)cc1 [Compound 35B, oxalate]
FRET-melting values in K+ conditions at 2 μM ΔTm FdxT [1]: 3.49 °C
IC50 [3, 12]: 4740 ± 900 nM
FRET-melting values in K+ conditions at 2 μM ΔTm F21T [7]: 27.23 °C
IC50 [4, 13]: 6760 ± 470 nM
FRET-melting values in K+ conditions at 2 μM ΔTm FPf8T [8]: 33.76 °C
IC50 [9]: 560 nM
FRET-melting values in K+ conditions at 2 μM ΔTm FtryBT [10]: 21.55 °C
FRET-melting values in K+ conditions at 2 μM ΔTm FPf1T [11]: 25.4 °C
